Measurements as given in patent US11352339B2 (MISSION THERAPEUTICS LIMITED, priority 2016, dated 2022).

Target: USP30 (Homo sapiens (Human), UniProt Q70CQ3)
Experiment: USP30 Biochemical IC50 Assay
Conditions: fluorescence polarisation, TAMRA labelled peptide linked to ubiquitin; 30 min pre-incubation, read after 2 h; read-out: IC50 range
In short: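 Enzyme preincubated 30 min at room temperature with compound, then 50 nM TAMRA-labelled isopeptide-linked ubiquitin–peptide substrate added. Fluorescence polarisation (ex 540/em 590 nm) read at once and after 2 h at room temperature; duplicate reactions.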

USP30, sequence (Q70CQ3 57-517): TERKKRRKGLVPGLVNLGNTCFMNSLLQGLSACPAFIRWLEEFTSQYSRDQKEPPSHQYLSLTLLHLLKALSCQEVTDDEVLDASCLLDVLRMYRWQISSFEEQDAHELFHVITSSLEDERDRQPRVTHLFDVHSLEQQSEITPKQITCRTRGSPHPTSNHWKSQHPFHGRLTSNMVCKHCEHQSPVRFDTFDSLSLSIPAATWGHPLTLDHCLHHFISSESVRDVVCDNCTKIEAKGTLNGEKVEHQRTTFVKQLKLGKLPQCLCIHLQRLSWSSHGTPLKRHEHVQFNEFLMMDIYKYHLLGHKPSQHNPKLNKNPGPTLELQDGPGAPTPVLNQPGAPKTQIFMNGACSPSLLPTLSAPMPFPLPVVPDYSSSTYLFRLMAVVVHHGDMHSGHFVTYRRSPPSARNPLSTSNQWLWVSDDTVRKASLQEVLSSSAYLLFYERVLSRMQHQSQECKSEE

| SMILES | IC50 |
| --- | --- |
| N#CN1CCCC1c1noc(-c2ccnc(-c3cccc(OC(F)(F)F)c3)c2)n1 (centres unmarked) [Example 168, 2-(5-(2-(3-(Trifluoromethoxy)phenyl)-pyridin-4-yl)-1,2,4-oxadiazol-3-yl)pyrrolidine-1-carbonitrile] | 0.1 to 1 µM |
| N#CN1CCCC1c1noc(-c2ccnc(-c3ccc(OC(F)(F)F)cc3)c2)n1 (centres unmarked) [Example 169, 2-(5-(2-(4-(Trifluoromethoxy)phenyl)-pyridin-4-yl)-1,2,4-oxadiazol-3-yl)pyrrolidine-1-carbonitrile] | 1 to 10 µM |
| N#CN1CCCC1c1noc(-c2ccnc(-c3cccc(C(N)=O)c3)c2)n1 (centres unmarked) [Example 170, 3-(4-(3-(1-Cyanopyrrolidin-2-yl)-1,2,4-oxadiazol-5-yl)pyridin-2-yl)benzamide] | 1 to 10 µM |
| CNC(=O)c1cccc(-c2cc(-c3nc(C4CCCN4C#N)no3)ccn2)c1 (centres unmarked) [Example 171, 3-(4-(3-(1-Cyanopyrrolidin-2-yl)-1,2,4-oxadiazol-5-yl)pyridin-2-yl)-N-methylbenzamide] | 1 to 10 µM |
| N#Cc1cccc(-c2ccnc(-c3nc(C4CCCN4C#N)no3)c2)c1 (centres unmarked) [Example 172, 2-(5-(4-(3-Cyanophenyl)pyridin-2-yl)-1,2,4-oxadiazol-3-yl)pyrrolidine-1-carbonitrile] | 0.1 to 1 µM |
| N#Cc1ccc(-c2cccc(-c3nc([C@@H]4CCCN4C#N)no3)c2)cc1 [Example 174, (S)-2-(5-(4′-Cyano-[1,1′-biphenyl]-3-yl)-1,2,4-oxadiazol-3-yl)pyrrolidine-1-carbonitrile] | < 0.1 µM |
| N#Cc1ccc(-c2cccc(-c3nc([C@@H]4CCCN4C#N)no3)n2)cc1 [Example 175, (S)-2-(5-(6-(4-Cyanophenyl)pyridin-2-yl)-1,2,4-oxadiazol-3-yl)pyrrolidine-1-carbonitrile] | < 0.1 µM |
| N#Cc1ccc(-c2ccnc(-c3nc([C@@H]4CCCN4C#N)no3)c2)cc1 [Example 176, (S)-2-(5-(4-(4-Cyanophenyl)pyridin-2-yl)-1,2,4-oxadiazol-3-yl)pyrrolidine-1-carbonitrile] | 0.1 to 1 µM |
| N#Cc1ccc(-c2cc(-c3nc([C@@H]4CCCN4C#N)no3)ccn2)cc1 [Example 177, (S)-2-(5-(2-(4-Cyanophenyl)pyridin-4-yl)-1,2,4-oxadiazol-3-yl)pyrrolidine-1-carbonitrile] | 0.1 to 1 µM |
| N#Cc1ccc2ccc(-c3nc([C@@H]4CCCN4C#N)no3)cc2c1 [Example 178, (S)-2-(5-(7-Cyanonaphthalen-2-yl)-1,2,4-oxadiazol-3-yl)pyrrolidine-1-carbonitrile] | 0.1 to 1 µM |
| N#Cc1cccc(-c2cc(-c3nc(C4CCCN4C#N)no3)ccn2)n1 (centres unmarked) [Example 180, 4′-(3-(1-Cyanopyrrolidin-2-yl)-1,2,4-oxadiazol-5-yl)-[2,2′-bipyridine]-6-carbonitrile] | 0.1 to 1 µM |
| N#Cc1cc(-c2cc(-c3nc([C@@H]4CCCN4C#N)no3)ccn2)ccn1 [Example 181, (S)-4-(3-(1-Cyanopyrrolidin-2-yl)-1,2,4-oxadiazol-5-yl)-[2,4′-bipyridine]-2 carbonitrile] | < 0.1 µM |
| N#Cc1cc(-c2ccnc(-c3nc([C@@H]4CCCN4C#N)no3)c2)ccn1 [Example 182, (S)-2′-(3-(1-Cyanopyrrolidin-2-yl)-1,2,4-oxadiazol-5-yl)-[4,4′-bipyridine]-2-carbonitrile] | 0.1 to 1 µM |
| N#Cc1cc(-c2cccc(-c3nc([C@@H]4CCCN4C#N)no3)n2)ccn1 [Example 183, (S)-6-(3-(1-Cyanopyrrolidin-2-yl)-1,2,4-oxadiazol-5-yl)-[2,4′-bipyridine]-2 carbonitrile] | < 0.1 µM |
| N#CN1CCCC1c1noc(-c2ccnc(-c3cccc(OC(F)(F)F)c3)n2)n1 (centres unmarked) [Example 184, 2-(5-(2-(3-(Trifluoromethoxy)phenyl)pyrimidin-4-yl)-1,2,4-oxadiazol-3-yl)pyrrolidine-1-carbonitrile] | < 0.1 µM |
| N#Cc1ccc(-c2nccc(-c3nc([C@@H]4CCCN4C#N)no3)n2)cc1 [Example 185, (S)-2-(5-(2-(4-Cyanophenyl)pyrimidin-4-yl)-1,2,4-oxadiazol-3-yl)pyrrolidine-1-carbonitrile] | 0.1 to 1 µM |
| N#Cc1cccc(-c2nccc(-c3nc([C@@H]4CCCN4C#N)no3)n2)c1 [Example 186, (S)-2-(5-(2-(3-Cyanophenyl)pyrimidin-4-yl)-1,2,4-oxadiazol-3-yl)pyrrolidine-1-carbonitrile] | < 0.1 µM |
| N#Cc1cnn(-c2nccc(-c3nc([C@@H]4CCCN4C#N)no3)n2)c1 [Example 187, (S)-1-(4-(3-(1-Cyanopyrrolidin-2-yl)-1,2,4-oxadiazol-5-yl)pyrimidin-2-yl)-1H-pyrazole-4-carbonitrile] | 0.1 to 1 µM |
| N#Cc1cc(-c2nccc(-c3nc([C@@H]4CCCN4C#N)no3)n2)ccn1 [Example 188, (S)-4-(4-(3-(1-Cyanopyrrolidin-2-yl)-1,2,4-oxadiazol-5-yl)pyrimidin-2-yl)picolinonitrile] | < 0.1 µM |
| N#CN1CCC(c2cc(-c3ccc(-c4ccccc4)cn3)n[nH]2)C1 (centres unmarked) [Example 194, 3-(5-(5-Phenylpyridin-2-yl)-1H-pyrazol-3-yl)pyrrolidine-1-carbonitrile] | < 0.1 µM |

Now from value to compound:

| IC50 | SMILES |
| --- | --- |
| 0.1 to 1 µM | N#Cc1cccc(-c2cc(-c3nc(C4CCCN4C#N)no3)ncn2)c1 (centres unmarked) [Example 189, 2-(5-(6-(3-Cyanophenyl)pyrimidin-4-yl)-1,2,4-oxadiazol-3-yl)pyrrolidine-1-carbonitrile] |
| 0.1 to 1 µM | N#Cc1cnn(-c2cccc(-c3nc([C@@H]4CCCN4C#N)no3)c2)c1 [Example 190, (S)-1-(3-(3-(1-Cyanopyrrolidin-2-yl)-1,2,4-oxadiazol-5-yl)phenyl)-1H-pyrazole-4-carbonitrile] |
| 1 to 10 µM | N#Cc1cnn(-c2ccnc(-c3nc([C@@H]4CCCN4C#N)no3)c2)c1 [Example 191, (S)-1-(2-(3-(1-Cyanopyrrolidin-2-yl)-1,2,4-oxadiazol-5-yl)pyridin-4-yl)-1H-pyrazole-4-carbonitrile] |
| 1 to 10 µM | N#Cc1cnn(-c2cc(-c3nc([C@@H]4CCCN4C#N)no3)ccn2)c1 [Example 193, (S)-1-(4-(3-(1-Cyanopyrrolidin-2-yl)-1,2,4-oxadiazol-5-yl)pyridin-2-yl)-1H-pyrazole-4-carbonitrile] |
| < 0.1 µM | N#CN1CCC(c2cc(-c3ccc(-c4ncccn4)cn3)n[nH]2)C1 (centres unmarked) [Example 195, 3-(3-(5-(Pyrimidin-2-yl)pyridin-2-yl)-1H-pyrazol-5-yl)pyrrolidine-1-carbonitrile] |
| 0.1 to 1 µM | N#CN1CCC(c2[nH]nc(-c3cccc(N4CCCCC4)n3)c2F)C1 (centres unmarked) [Example 196, 3-(4-Fluoro-3-(6-(piperidin-1-yl)pyridin-2-yl)-1H-pyrazol-5-yl)pyrrolidine-1-carbonitrile] |
| 0.1 to 1 µM | N#Cc1cccc(C2CN(c3noc(C4CCN(C#N)C4)n3)C2)c1 (centres unmarked) [Example 197, 3-(3-(3-(3-Cyanophenyl)azetidin-1-yl)-1,2,4-oxadiazol-5-yl)pyrrolidine-1-carbonitrile] |
| 0.1 to 1 µM | N#Cc1ccc(C2CN(c3noc(C4CCN(C#N)C4)n3)C2)cc1 (centres unmarked) [Example 198, 3-(3-(3-(4-Cyanophenyl)azetidin-1-yl)-1,2,4-oxadiazol-5-yl)pyrrolidine-1-carbonitrile] |
| 0.1 to 1 µM | N#CN1CCC(c2n[nH]c(-c3ccnc(-c4ccccc4)c3)n2)C1 (centres unmarked) [Example 199, 3-(3-(2-Phenylpyridin-4-yl)-1H-1,2,4-triazol-5-yl)pyrrolidine-1-carbonitrile] |
